Assay results reported in patent US20250161308A1, “Methods of Treating Covid-Related Disorders” (priority 2022, published 2025).
Read-outs that look alike come from different tables or passages of the source.

Columns and labels:
[1] = system: patient in need of treatment for long COVID; test: Treating long COVID (Example 1), clinical screening assessments; format: in vivo, human; conditions: patients with long COVID
Method: A Compound of Formula (I), such as Compound 2a or Compound 1a, or a pharmaceutically acceptable salt thereof, is administered orally to a patient in need of treatment for long COVID.
In some embodiments, a patient in need of treatment for long COVID is assessed with ADCS-ADL23. The ADCS-ADL23 (Galasko, 1997) is a 23-item assessment of functional impairment in terms of activities of daily living administered to the support person/caregiver. It comprises 23 questions about the subject's involvement and level of performance across items representing daily living. The questions range from basic to instrumental activities of daily living. Each item is rated from the highest level of independent performance to complete loss. The total score range is from 0 to 78, with lower scores indicating greater functional impairment.
A patient in need of treatment for long COVID is assessed with ERP P300. ERP P300 is a quantitative, unbiased, non-invasive method of recording task-related brain processing speed, elicited by external stimuli, e.g., an oddball auditory stimulus, and is a well-established functional biomarker, particularly of working memory access (Ally, 2006). ERP P300 is characterized by a stereotyped series of voltage deflections occurring after the respective odd tone to be counted, with early features (<100 msec) corresponding to unconscious sensory transmission (auditory cortex, N100), and later features produced by cognitive processing in the ventral attentional network, i.e., P300, referring to the large positive deflection at roughly 300 msec in healthy adults (young or elderly). The P300 latency is sensitive to detecting reduced synaptic transmission related to cognitive decline in AD patients and other dementias (Olichney, 2011).

[2] = system: Rat primary cortical neuron cultures; format: cell-based; conditions: for Significance of neuroprotection vs 1 uM LPS: 24 h LPS
Rat hippocampal neurons [3] = test: Neurite outgrowth assay; format: cell-based
Rat hippocampal neurons [4] = test: Synaptogenesis assay; format: cell-based; conditions: for Significant increase in: Synapses: Table 4 study
[5] = system: scopolamine-induced spatial memory deficits in rats; test: Scopolamine-induced spatial memory deficit, Morris water maze (3 mg/kg scopolamine, 8 days); format: in vivo, rat

SMILES: CCC(C)CN1CC2N(C(=O)c3ccc(OC(F)F)cc3)CCC(=O)N2[C@@H](C)C1=O (some centres unmarked) [Compound 2a]
- patient outcome as measured by one or more of the screening assessments [1]: reduces the rate of decline, stabilizes, or improves patient outcome
- safety and tolerability [1]: acceptable safety and tolerability
- Significance of neuroprotection vs 1 uM LPS ([2]; 0.1 nM): +++ (+++ indicates p<0.001)
- Significance of neuroprotection vs 1 uM LPS ([2]; 1 nM): +++ (+++ indicates p<0.001)
- Significance of neuroprotection vs 1 uM LPS ([2]; 10 nM): +++ (+++ indicates p<0.001)
- Significance of neuroprotection vs 1 uM LPS ([2]; 100 nM): +++ (+++ indicates p<0.001)
- Significance of neuroprotection vs 1 uM LPS ([2]; 1 μM): +++ (+++ indicates p<0.001)
- protection of primary neurons from LPS-stimulated inflammatory toxicity ([2]; at at least one dose tested): protected primary neurons from LPS-stimulated inflammatory toxicity
- neurite length / extension of neurites (in words) (Rat hippocampal neurons [3]): increase neurite length at a concentration of 10 nM
- Significant increase in: Neurite length (Rat hippocampal neurons [3]; 10 nM, Table 4 study): ++++ (++++ = p < 0.0001)
- synapse counts (in words) (Rat hippocampal neurons [4]): increase synapse counts at all concentrations tested
- Significant increase in: Synapses (Rat hippocampal neurons [4]; 1 nM): ++++ (++++ = p < 0.0001)
- Significant increase in: Synapses (Rat hippocampal neurons [4]; 10 nM): ++++ (++++ = p < 0.0001)
- Significant increase in: Synapses (Rat hippocampal neurons [4]; 100 nM): ++++ (++++ = p < 0.0001)
- Cognitive Improvement ([5]; 0.1 mg/kg PO): − (− indicates post-test p-value above 0.06)
- Cognitive Improvement ([5]; 1 mg/kg PO): +++ (+++ indicates post-test p-value below 0.01)
- Cognitive Improvement ([5]; 10 mg/kg PO): − (− indicates post-test p-value above 0.06)
